The results in this text go back to patent US9718790B2, “Triazine derivative and pharmaceutical composition having an analgesic activity comprising the same” (SHIONOGI & CO., LTD., priority 2010, dated 2017).

This experiment deals with human P2X3 receptor (Homo sapiens (Human), UniProt P56373). As to the kind of experiment: Evaluation of human P2X3 receptor inhibitory activity (Fluo-3 calcium fluorescence, FDSS 3000, ATP stimulation).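 Also: stimulus was 50 nM ATP with fluorescence followed for 3 min, and the response per well was peak post-ATP fluorescence divided by the reading at measurement start.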 Format: cell-based. The conditions noted are these: C6BU-1 cells stably expressing human P2X3 receptor.
Chain of human P2X3 receptor (P56373 whole entry): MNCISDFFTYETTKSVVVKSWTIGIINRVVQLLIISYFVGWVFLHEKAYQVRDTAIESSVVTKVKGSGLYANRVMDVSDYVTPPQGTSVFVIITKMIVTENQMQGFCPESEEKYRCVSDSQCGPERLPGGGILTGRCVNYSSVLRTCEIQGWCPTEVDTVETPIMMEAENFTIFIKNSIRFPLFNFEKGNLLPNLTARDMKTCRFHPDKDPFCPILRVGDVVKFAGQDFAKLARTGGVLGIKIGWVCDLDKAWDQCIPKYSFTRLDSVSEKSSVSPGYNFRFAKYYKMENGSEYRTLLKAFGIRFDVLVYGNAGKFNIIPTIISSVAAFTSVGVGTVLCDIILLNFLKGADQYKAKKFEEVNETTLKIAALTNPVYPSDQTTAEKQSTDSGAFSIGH

As a reminder, the IC50 is the concentration at which inhibition is half-maximal. For `Cc1ccc(Cn2c(=O)n(C[C@H](C)C(=O)O)c(=O)[nH]/c2=N\c2cccc(C3=CCCC3)c2)cc1` [Compound I-1115], the IC50 (Fluo-3 fluorescence, FDSS 3000) was found to be 516 nM. On to `COC(=O)[C@@H](C)Cn1c(=O)[nH]/c(=N\c2ccc(OC3CCOCC3)nc2)n(Cc2ccc(C)cc2)c1=O` [Compound I-1118], for which the IC50 (Fluo-3 fluorescence, FDSS 3000) was 387 nM. As for `Cc1ccc(Cn2c(=O)n(C[C@H](C)C(=O)O)c(=O)[nH]/c2=N\c2ccc(OC3CCOCC3)nc2)cc1` [Compound I-1120], the IC50 (Fluo-3 fluorescence, FDSS 3000) stood at 534 nM. Same read-out and setting: the same measure for `Cc1ccc(Cn2c(=O)n(C[C@H](C)C(=O)O)c(=O)[nH]/c2=N\c2ccc(Oc3ccncc3)cc2)cc1` [Compound I-1122]: 8 nM; for `Cc1ccc(Cn2c(=O)n(C[C@H](C)C(=O)O)c(=O)[nH]/c2=N\c2ccc(Oc3cccnc3)cc2)cc1` [Compound I-1123]: 14 nM; for `COC(=O)[C@@H](C)Cn1c(=O)[nH]/c(=N\c2ccc(Oc3ccncc3)cc2)n(Cc2ccc(C)cc2)c1=O` [Compound I-1125]: 4 nM.

With `COC(=O)[C@@H](C)Cn1c(=O)[nH]/c(=N\c2ccc(Oc3cccnc3)cc2)n(Cc2ccc(C)cc2)c1=O` [Compound I-1126], the IC50 (Fluo-3 fluorescence, FDSS 3000) was 8 nM. Still for that read-out and setting: the result for `COC(=O)[C@@H](C)Cn1c(=O)[nH]/c(=N\c2ccc(OC(C)C)c(O)c2)n(Cc2ccc(C)cc2)c1=O` [Compound I-1128] reads 21 nM; that for `COC(=O)[C@@H](C)Cn1c(=O)[nH]/c(=N\c2ccc(OC(C)C)c(OC)c2)n(Cc2ccc(C)cc2)c1=O` [Compound I-1129], 11 nM. Regarding `COC(=O)[C@@H](C)Cn1c(=O)[nH]/c(=N\c2ccc(OC(C)C)c(OC(C)C)c2)n(Cc2ccc(C)cc2)c1=O` [Compound I-1130], the IC50 (Fluo-3 fluorescence, FDSS 3000) was 133 nM. Still for that read-out and setting: the same measure for `C=Cc1ccc(Cn2c(=O)n(C[C@H](C)C(=O)OC)c(=O)[nH]/c2=N\c2ccc(OC(C)C)cc2)cc1` [Compound I-1131]: 105 nM; for `COC(=O)[C@@H](C)Cn1c(=O)[nH]/c(=N\c2cccc(CC(C)C)c2)n(Cc2ccc(C)cc2)c1=O` [Compound I-1132]: 586 nM. Still for that read-out and setting: the result for `CCc1ccc(Cn2c(=O)n(C[C@H](C)C(=O)OC)c(=O)[nH]/c2=N\c2ccc(OC(C)C)cc2)cc1` [Compound I-1133] reads 51 nM.

Regarding `Cc1ccc(Cn2c(=O)n(C[C@H](C)C(=O)O)c(=O)[nH]/c2=N\c2ccc(OC(C)C)c(O)c2)cc1` [Compound I-1134], the IC50 (Fluo-3 fluorescence, FDSS 3000) stood at 35 nM. Still for that read-out and setting: the result for `COc1cc(/N=c2\[nH]c(=O)n(C[C@H](C)C(=O)O)c(=O)n2Cc2ccc(C)cc2)ccc1OC(C)C` [Compound I-1135] reads 18 nM; that for `Cc1ccc(Cn2c(=O)n(C[C@H](C)C(=O)O)c(=O)[nH]/c2=N\c2ccc(OC(C)C)c(OC(C)C)c2)cc1` [Compound I-1136], 204 nM; that for `Cc1ccc(Cn2c(=O)n(C[C@H](C)C(=O)O)c(=O)[nH]/c2=N\c2cccc(CC(C)C)c2)cc1` [Compound I-1137], 678 nM. For the compound `C=Cc1ccc(Cn2c(=O)n(C[C@H](C)C(=O)O)c(=O)[nH]/c2=N\c2ccc(OC(C)C)cc2)cc1` [Compound I-1139], the IC50 (Fluo-3 fluorescence, FDSS 3000) worked out at 52 nM. On the same count and under the same terms, the result for `CCc1ccc(Cn2c(=O)n(C[C@H](C)C(=O)O)c(=O)[nH]/c2=N\c2ccc(OC(C)C)cc2)cc1` [Compound I-1140] reads 44 nM.

Regarding `C/C=C/c1ccc(Cn2c(=O)n(C[C@H](C)C(=O)OC)c(=O)[nH]/c2=N\c2ccc(OC(C)C)cc2)cc1` [Compound I-1141], the IC50 (Fluo-3 fluorescence, FDSS 3000) turned out to be 911 nM.

As to `C/C=C\c1ccc(Cn2c(=O)n(C[C@H](C)C(=O)OC)c(=O)[nH]/c2=N\c2ccc(OC(C)C)cc2)cc1` [Compound I-1142], under “Fluo-3 fluorescence, FDSS 3000”, the IC50 is 802 nM. With `CCCc1ccc(Cn2c(=O)n(C[C@H](C)C(=O)OC)c(=O)[nH]/c2=N\c2ccc(OC(C)C)cc2)cc1` [Compound I-1144], for the setting “Fluo-3 fluorescence, FDSS 3000”, the IC50 turned out to be 764 nM. Still for that read-out and setting: the result for `CCOC(=O)CCn1c(=O)[nH]/c(=N\c2ccc(OCC3CC3)cc2)n(Cc2ccc(C)cc2)c1=O` [Compound I-1146] reads 9 nM; that for `CCOC(=O)CCn1c(=O)[nH]/c(=N\c2ccc(OCC3CC3)cc2)n(Cc2ccc(Cl)cc2)c1=O` [Compound I-1147], 10 nM; that for `Cc1ccc(Cn2c(=O)n(CCC(=O)O)c(=O)[nH]/c2=N\c2ccc(OCC3CC3)cc2)cc1` [Compound I-1148], 86 nM. Same read-out and setting: the result for `C/C=C\c1ccc(Cn2c(=O)n(C[C@H](C)C(=O)O)c(=O)[nH]/c2=N\c2ccc(OC(C)C)cc2)cc1` [Compound I-1150] reads 551 nM; that for `COC(=O)[C@@H](C)Cn1c(=O)[nH]/c(=N\c2cccc(SC)c2)n(Cc2ccc(Cl)cc2)c1=O` [Compound I-1151], 46 nM; that for `CSc1cccc(/N=c2\[nH]c(=O)n(C[C@H](C)C(=O)O)c(=O)n2Cc2ccc(Cl)cc2)c1` [Compound I-1152], 110 nM.

On to `COC(=O)[C@@H](C)Cn1c(=O)[nH]/c(=N\c2cccc(SC)c2)n(Cc2ccc(C)cc2)c1=O` [Compound I-1153], for which the IC50 (Fluo-3 fluorescence, FDSS 3000) was 71 nM. For `CSc1cccc(/N=c2\[nH]c(=O)n(C[C@H](C)C(=O)O)c(=O)n2Cc2ccc(C)cc2)c1` [Compound I-1154], where the note is “Fluo-3 fluorescence, FDSS 3000”, the IC50 is 131 nM. Take `CCOC(=O)CCn1c(=O)[nH]/c(=N\c2ccc(OC(C)C)c(C)c2)n(Cc2ccc(Cl)cc2)c1=O` [Compound I-1155]: the IC50 (Fluo-3 fluorescence, FDSS 3000) was 9 nM. Still for that read-out and setting: the result for `CCOC(=O)CCn1c(=O)[nH]/c(=N\c2ccc(OC(C)C)c(C)c2)n(Cc2ccc(C)cc2)c1=O` [Compound I-1156] reads 6 nM; that for `Cc1cc(/N=c2\[nH]c(=O)n(CCC(=O)O)c(=O)n2Cc2ccc(Cl)cc2)ccc1OC(C)C` [Compound I-1157], 52 nM.

With `Cc1ccc(Cn2c(=O)n(CCC(=O)O)c(=O)[nH]/c2=N\c2ccc(OC(C)C)c(C)c2)cc1` [Compound I-1158], where the note is “Fluo-3 fluorescence, FDSS 3000”, the IC50 stood at 63 nM.

For the compound `C/C=C/c1ccc(Cn2c(=O)n(C[C@H](C)C(=O)O)c(=O)[nH]/c2=N\c2ccc(OC(C)C)cc2)cc1` [Compound I-1160], for the setting “Fluo-3 fluorescence, FDSS 3000”, the IC50 is 973 nM. `Cc1ccc(Cn2c(=O)n(C[C@H](C)C(=O)O)c(=O)[nH]/c2=N\c2ccc(OC(F)F)cc2)cc1` [Compound I-1161]: under “Fluo-3 fluorescence, FDSS 3000”, the IC50 worked out at 148 nM. The same measure, in the same setting: the result for `C[C@@H](Cn1c(=O)[nH]/c(=N\c2ccc(OC(F)F)cc2)n(Cc2ccc(Cl)cc2)c1=O)C(=O)O` [Compound I-1162] reads 179 nM; that for `Cc1cc(/N=c2\[nH]c(=O)n([C@H](C)[C@@H](C)C(=O)N[C@H](C)[C@@H](O)c3ccccc3)c(=O)n2Cc2ccc(Cl)cc2)ccc1OC(C)C` [Compound I-1163], 823 nM.

Regarding `COC(=O)[C@@H](C)Cn1c(=O)[nH]/c(=N\c2ccc(OC(F)F)cc2)n(Cc2ccc(Cl)cc2)c1=O` [Compound I-1166], the IC50 (Fluo-3 fluorescence, FDSS 3000) was found to be 126 nM. Same read-out and setting: the same measure for `CCOC(=O)CCn1c(=O)[nH]/c(=N\c2ccc(OC(C)C)c(Br)c2)n(Cc2ccc(C)cc2)c1=O` [Compound I-1168]: 4 nM; for `COC(=O)[C@@H](C)Cn1c(=O)[nH]/c(=N\c2ccc(C=C(C)C)c(F)c2)n(Cc2ccc(C)cc2)c1=O` [Compound I-1171]: 25 nM; for `COC(=O)[C@@H](C)Cn1c(=O)[nH]/c(=N\c2ccc(CN(C)C)c(Cl)c2)n(Cc2ccc(C)cc2)c1=O` [Compound I-1172]: 97 nM. With `CCOc1ccc(/N=c2\[nH]c(=O)n(C[C@H](C)C(=O)OC)c(=O)n2Cc2ccc(C)cc2)cc1Br` [Compound I-1173], the concentration for half-maximal inhibition (IC50) (Fluo-3 fluorescence, FDSS 3000) is 9 nM. On the same count and under the same terms, the result for `CC(C)=Cc1ccc(/N=c2\[nH]c(=O)n(C[C@H](C)C(=O)O)c(=O)n2Cc2ccc(C)cc2)cc1F` [Compound I-1174] reads 27 nM; that for `Cc1ccc(Cn2c(=O)n(C[C@H](C)C(=O)O)c(=O)[nH]/c2=N\c2ccc(CN(C)C)c(Cl)c2)cc1` [Compound I-1177], 273 nM. On the same count and under the same terms, the result for `Cc1ccc(Cn2c(=O)n(CCC(=O)O)c(=O)[nH]/c2=N\c2ccc(OC(C)C)c(Br)c2)cc1` [Compound I-1178] reads 17 nM; that for `CCOc1ccc(/N=c2\[nH]c(=O)n(C[C@H](C)C(=O)O)c(=O)n2Cc2ccc(C)cc2)cc1Br` [Compound I-1179], 33 nM. Still for that read-out and setting: the result for `COC(=O)[C@@H](C)Cn1c(=O)[nH]/c(=N\c2ccc(OC3CCCCC3)nc2)n(Cc2ccc(C)cc2)c1=O` [Compound I-1184] reads 138 nM; that for `COC(=O)[C@@H](C)Cn1c(=O)[nH]/c(=N\c2ccc(OC3CCCC3)nc2)n(Cc2ccc(C)cc2)c1=O` [Compound I-1185], 116 nM; that for `COC(=O)[C@@H](C)Cn1c(=O)[nH]/c(=N\c2ccc(OC3CCCC3)cc2)n(Cc2ccc(C)cc2)c1=O` [Compound I-1186], 33 nM. Turning to `COC(=O)[C@@H](C)Cn1c(=O)[nH]/c(=N\c2ccc(OC3CCC3)nc2)n(Cc2ccc(C)cc2)c1=O` [Compound I-1187], the IC50 (Fluo-3 fluorescence, FDSS 3000) came to 58 nM. Regarding `Cc1ccc(Cn2c(=O)n(C[C@H](C)C(=O)O)c(=O)[nH]/c2=N\c2ccc(OC3CCCCC3)nc2)cc1` [Compound I-1188], the IC50 is 131 nM. The same measure, in the same setting: the result for `Cc1ccc(Cn2c(=O)n(C[C@H](C)C(=O)O)c(=O)[nH]/c2=N\c2ccc(OC3CCCC3)cc2)cc1` [Compound I-1189] reads 33 nM. As for `C=Cc1cc(/N=c2\[nH]c(=O)n(CCC(=O)OCC)c(=O)n2Cc2ccc(C)cc2)ccc1OC(C)C` [Compound I-1190], the IC50 was 5 nM. In the case of `C=Cc1cc(/N=c2\[nH]c(=O)n(C[C@H](C)C(=O)OC)c(=O)n2Cc2ccc(C)cc2)ccc1OCC` [Compound I-1191], the IC50 was determined as 22 nM. The same measure, in the same setting: the same measure for `C=Cc1cc(/N=c2\[nH]c(=O)n(CCC(=O)O)c(=O)n2Cc2ccc(C)cc2)ccc1OC(C)C` [Compound I-1192]: 20 nM.

For the compound `COC(=O)[C@@H](C)Cn1c(=O)[nH]/c(=N\c2ccc(/C=C/C3CC3)cc2)n(Cc2ccc(C)cc2)c1=O` [Compound I-1193], the IC50 turned out to be 40 nM. Still for that read-out and setting: the same measure for `C=Cc1cc(/N=c2\[nH]c(=O)n(C[C@H](C)C(=O)O)c(=O)n2Cc2ccc(C)cc2)ccc1OCC` [Compound I-1194]: 31 nM; for `COC(=O)[C@@H](C)Cn1c(=O)[nH]/c(=N\c2ccc(Br)c(OC)c2)n(Cc2ccc(C)cc2)c1=O` [Compound I-1195]: 221 nM.
